The compounds below were run on Aedes aegypti mosquitoes, insecticide-susceptible Orlando strain (assay: not given). Details: screened at 100 μg/cm^2; 1 h; strain not given.
Format: in vivo
Protocol: The tubes as shown were held horizontally on the bench.
For assessing behavioral repellency (FIG. 1), Aedes aegypti mosquitoes were used from the insecticide-susceptible Orlando strain and the pyrethroid-resistant Puerto Rico strain. Sixteen female mosquitoes were transferred to a glass tube (12.5 cm long, 2.5 cm outer diameter) with the ends covered with netting. Each compound was dissolved in 1 mL of acetone and serial dilutions ranging from 30-0.01 μg/ml were made. Circular filter papers (5 cm^2) were saturated with 50 μL of each concentration and allowed 10 min for solvent evaporation. The filter papers were then placed in clear conical polypropylene caps and fixed to the end of the glass tubes. The netting prevented mosquito contact with the filter paper. The tubes were then aligned with a mark denoting the midline and the proportion of mosquitoes on the chemically treated side was scored for up to 60 min. At the end of the test, the tube was placed in a cage and the ability of the mosquitoes to fly out of the tube was assessed for 30 min. […] This post-test evaluated whether any non-responding mosquitoes (not repelled) resulted from intoxication or disorientation from the test chemical. For assessment of lethality, insects were held for 24 hr under constant exposure in glass tubes having treated filter papers.
Compounds were first screened at 100 μg/cm^2 for repellency and 24 h mortality.
With `CCOC(=O)c1ccccc1C(F)(F)F` [MTFI-5-13B] the “1 h % Repellency, 100 μg/cm^2” value was 12%. With `COC(=O)c1ccccc1O` [MTFI-5-14A] the “1 h % Repellency, 100 μg/cm^2” value was 70%. For `CCOC(=O)c1ccccc1O` [MTFI-5-14B], the “1 h % Repellency, 100 μg/cm^2” value was 30%. `O=C(CCl)Nc1cccc(O)c1` [MTFI-5-15A] was tested, and the “1 h % Repellency, 100 μg/cm^2” value was 36%. In the case of `COC(=O)c1cccc(C(F)(F)F)c1N` [MTFI-5-512B], the “1 h % Repellency, 100 μg/cm^2” value is reported as 42%.

Same assay, conditions: structure-activity analysis of Table 2
For `COC(=O)c1ccccc1N(C)C(F)(C(F)(F)F)C(F)(F)F` [MTFI-5-11A], the “vapor repellency / mortality, statement in words (Example 8)” value (from here on “vapor repellency / mortality, statement”) was “moderate repellency in some instances”. In the case of `COC(=O)c1cccc(C(F)(F)F)c1N` [MTFI-5-12B], the “vapor repellency / mortality, statement” value is reported as “moderate repellency in some instances”. `COC(=O)c1ccccc1O` [MTFI-5-14A] was tested, and the “vapor repellency / mortality, statement” value was “moderate repellency and toxicity”. With `CCOC(=O)c1ccccc1O` [MTFI-5-14B] the “vapor repellency / mortality, statement” value was “moderate repellency and toxicity”.

What follows are compounds tested on Anopheles gambiae G3 sensitive strain (assay: Topical toxicity (24 hour mortality), An. gambiae G3). Details: topical application, 24 h mortality, female adults, susceptible strain G3.
Format: in vivo
Protocol: (§1) The Aedes aegypti strains Orlando (sensitive) as well as the Puerto Rico (PR, resistant to permethrin) were used. The Anopheles gambiae (G3 sensitive strain, as well as Akron kdr (Akdr) strain, resistant to pyrethroids were also assessed. The larvae were provided by the USDA, Gainesville Fl, and raised in a pan with tap water maintained at 28° C. Larvae were fed a ground liver and yeast mixture, and pupae were placed in emergence cages. Adults were held at 28° C. and provided with cotton balls soaked in 10% sugar water for rearing and for all bioassays.
(§2) Female adults from 3 to 6 days were used for the experiments. The drug was dissolved in ethanol and then applied with a micro-applicator on the thorax, between the legs: 200 nL of drug per female mosquito, with different concentrations of the drug; 10 mosquitos were treated together per concentration per replicate, and put together in a small container with free access to sweet water. Mortality, i.e. no visible movement, was assessed 24 hours after treatment. Every compound was assessed on at least 3 different cohorts of mosquitoes, and the LD50 values and slopes were determined with Probit analysis, corrected with Abbott's formula.
`O=C(Nc1cc(Cl)nc(C(F)(F)F)c1)C(F)F` [GMR034] was tested, and the “An. gambiae G3 LD50” value was 20.8 ng/mg. For `O=C(Nc1cc(Cl)nc(C(F)(F)F)c1)C(F)(F)F` [GMR035], the “An. gambiae G3 LD50” value was 30.5 ng/mg. For `O=C(Nc1cc(Cl)nc(C(F)(F)F)c1)C(F)(F)C(F)(F)F` [GMR036], the “An. gambiae G3 LD50” value was 13.5 ng/mg. For `O=C(Nc1cc(Cl)nc(C(F)(F)F)c1)C(F)(F)C(F)(F)C(F)(F)F` [GMR037, N-(2-chloro-6-(trifluoromethyl)pyridin-4-yl)-2,2,3,3,4,4,4-heptafluorobutanamide], the “An. gambiae G3 LD50” value was 6.5 ng/mg. In the case of `O=C(Nc1cc(Br)nc(Br)c1)C(F)F` [GMR039], the “An. gambiae G3 LD50” value is reported as 20.8 ng/mg. `O=C(Nc1cc(Br)nc(Br)c1)C(F)(F)F` [GMR040] was tested, and the “An. gambiae G3 LD50” value was over 100 ng/mg. For `O=C1C2=C(CCCC2)C(=O)N1COC(=O)C(F)(F)C(F)(F)C(F)(F)F` [GMR096], the “An. gambiae G3 LD50” value was over 100 ng/mg.

These compounds were tested on Aedes aegypti strain Orlando (sensitive) (assay: Topical toxicity (24 hour mortality), Ae. aegypti Orlando). Details: topical application, 24 h mortality, female adults, susceptible Orlando strain.
Format: in vivo
Protocol: as §1, §2
`O=C(Nc1cc(Cl)nc(C(F)(F)F)c1)C(F)F` [GMR034] was tested, and the “Ae. aegypti OR LD50” value was 1454 ng/mg. `O=C(Nc1cc(Cl)nc(C(F)(F)F)c1)C(F)(F)F` [GMR035] was tested, and the “Ae. aegypti OR LD50” value was 106 ng/mg. `O=C(Nc1cc(Cl)nc(C(F)(F)F)c1)C(F)(F)C(F)(F)F` [GMR036] was tested, and the “Ae. aegypti OR LD50” value was 25 ng/mg. In the case of `O=C(Nc1cc(Cl)nc(C(F)(F)F)c1)C(F)(F)C(F)(F)C(F)(F)F` [GMR037, N-(2-chloro-6-(trifluoromethyl)pyridin-4-yl)-2,2,3,3,4,4,4-heptafluorobutanamide], the “Ae. aegypti OR LD50” value is reported as 17 ng/mg. `O=C(Nc1cc(Br)nc(Br)c1)C(F)F` [GMR039] was tested, and the “Ae. aegypti OR LD50” value was 2253 ng/mg. With `O=C(Nc1cc(Br)nc(Br)c1)C(F)(F)F` [GMR040] the “Ae. aegypti OR LD50” value was 1223 ng/mg. `O=C(Nc1cc(Cl)nc(Cl)c1)C(Cl)(Cl)Cl` [GMR059] was tested, and the “Ae. aegypti OR LD50” value was 866 ng/mg. With `O=C(Nc1ccccn1)C(F)(F)C(F)(F)C(F)(F)F` [GMR060] the “Ae. aegypti OR LD50” value was 1758 ng/mg. With `CCCCCC(=O)Nc1c(F)c(F)nc(F)c1F` [GMR065] the “Ae. aegypti OR LD50” value was 1225 ng/mg. `O=C(Nc1ccnc(Cl)c1)C(F)(F)C(F)(F)C(F)(F)C(F)(F)C(F)(F)F` [GMR068] was tested, and the “Ae. aegypti OR LD50” value was 3425 ng/mg. For `O=C(Nc1ccnc(C(F)(F)F)c1)C(F)(F)C(F)(F)C(F)(F)C(F)(F)C(F)(F)F` [GMR070], the “Ae. aegypti OR LD50” value was 1261 ng/mg. In the case of `COc1cc(NC(=O)C(F)(F)C(F)(F)C(F)(F)C(F)(F)C(F)(F)F)ccn1` [GMR071], the “Ae. aegypti OR LD50” value is reported as over 2000 ng/mg. In the case of `Cc1cc(NC(=O)C(F)(F)C(F)(F)C(F)(F)C(F)(F)C(F)(F)F)cc(C)n1` [GMR073], the “Ae. aegypti OR LD50” value is reported as over 3000 ng/mg. For `O=C(Nc1cc(Cl)cc(Cl)n1)C(F)(F)C(F)(F)C(F)(F)F` [GMR078], the “Ae. aegypti OR LD50” value was 5668 ng/mg. For `O=C(Nc1ccc(Cl)cn1)C(F)(F)C(F)(F)C(F)(F)F` [GMR079], the “Ae. aegypti OR LD50” value was over 1000 ng/mg. For `O=C(Nc1ncc(C(F)(F)F)cc1Cl)C(F)(F)C(F)(F)C(F)(F)F` [GMR080], the “Ae. aegypti OR LD50” value was over 1000 ng/mg. In the case of `O=C(Nc1c(F)c(F)nc(F)c1F)C(F)(F)F` [GMR081], the “Ae. aegypti OR LD50” value is reported as 698 ng/mg. In the case of `O=C1C2=C(CCCC2)C(=O)N1COC(=O)C(F)(F)C(F)(F)C(F)(F)F` [GMR096], the “Ae. aegypti OR LD50” value is reported as 2538 ng/mg. In the case of `CC(C)(C)OC(=O)N(C(=O)C(F)(F)F)c1cc(Cl)nc(Cl)c1` [GMR119], the “Ae. aegypti OR LD50” value is reported as 343 ng/mg. With `CC(C)CC(=O)Nc1cc(Cl)nc(Cl)c1` [GMR145] the “Ae. aegypti OR LD50” value was 775 ng/mg. With `O=C(Nc1cc(Cl)nc(Cl)c1)C(C(F)(F)F)C(F)(F)F` [GMR174] the “Ae. aegypti OR LD50” value was 500 ng/mg.

These compounds were tested on Anopheles gambiae Akron kdr (Akdr) strain, resistant to pyrethroids (assay: Topical toxicity (24 hour mortality), An. gambiae Akdr). Details: 24 h LD50 resistant strain (AKDR)/24 h LD50 susceptible strain (G3).
Format: in vivo
Protocol: as §1, §2
In the case of `O=C(Nc1cc(Cl)nc(C(F)(F)F)c1)C(F)F` [GMR034], the “An. gambiae RR (resistance ratio)” value is reported as 1.1. In the case of `O=C(Nc1cc(Cl)nc(C(F)(F)F)c1)C(F)(F)F` [GMR035], the “An. gambiae RR (resistance ratio)” value is reported as 1.7. For `O=C(Nc1cc(Cl)nc(C(F)(F)F)c1)C(F)(F)C(F)(F)F` [GMR036], the “An. gambiae RR (resistance ratio)” value was 0.7. With `O=C(Nc1cc(Cl)nc(C(F)(F)F)c1)C(F)(F)C(F)(F)C(F)(F)F` [GMR037, N-(2-chloro-6-(trifluoromethyl)pyridin-4-yl)-2,2,3,3,4,4,4-heptafluorobutanamide] the “An. gambiae RR (resistance ratio)” value was 0.8. `O=C(Nc1cc(Br)nc(Br)c1)C(F)F` [GMR039] was tested, and the “An. gambiae RR (resistance ratio)” value was 1.1.

Same assay, conditions: topical application, 24 h mortality, female adults, pyrethroid-resistant Akdr strain
`O=C(Nc1cc(Cl)nc(C(F)(F)F)c1)C(F)F` [GMR034] was tested, and the “An. gambiae AKDR LD50” value was 23.8 ng/mg. `O=C(Nc1cc(Cl)nc(C(F)(F)F)c1)C(F)(F)F` [GMR035] was tested, and the “An. gambiae AKDR LD50” value was 52.1 ng/mg. For `O=C(Nc1cc(Cl)nc(C(F)(F)F)c1)C(F)(F)C(F)(F)F` [GMR036], the “An. gambiae AKDR LD50” value was 10.0 ng/mg. For `O=C(Nc1cc(Cl)nc(C(F)(F)F)c1)C(F)(F)C(F)(F)C(F)(F)F` [GMR037, N-(2-chloro-6-(trifluoromethyl)pyridin-4-yl)-2,2,3,3,4,4,4-heptafluorobutanamide], the “An. gambiae AKDR LD50” value was 5.3 ng/mg. With `O=C(Nc1cc(Br)nc(Br)c1)C(F)F` [GMR039] the “An. gambiae AKDR LD50” value was 23.8 ng/mg. For `O=C(Nc1cc(Br)nc(Br)c1)C(F)(F)F` [GMR040], the “An. gambiae AKDR LD50” value was over 100 ng/mg. With `CCCCCC(=O)Nc1c(F)c(F)nc(F)c1F` [GMR065] the “An. gambiae AKDR LD50” value was 1225 ng/mg. In the case of `O=C(Nc1ccnc(Cl)c1)C(F)(F)C(F)(F)C(F)(F)C(F)(F)C(F)(F)F` [GMR068], the “An. gambiae AKDR LD50” value is reported as 3425 ng/mg. `O=C(Nc1ccnc(C(F)(F)F)c1)C(F)(F)C(F)(F)C(F)(F)C(F)(F)C(F)(F)F` [GMR070] was tested, and the “An. gambiae AKDR LD50” value was 1261 ng/mg. In the case of `O=C(Nc1cc(Cl)cc(Cl)n1)C(F)(F)C(F)(F)C(F)(F)F` [GMR078], the “An. gambiae AKDR LD50” value is reported as over 100 ng/mg. With `O=C(Nc1ccc(Cl)cn1)C(F)(F)C(F)(F)C(F)(F)F` [GMR079] the “An. gambiae AKDR LD50” value was over 100 ng/mg. In the case of `O=C(Nc1ncc(C(F)(F)F)cc1Cl)C(F)(F)C(F)(F)C(F)(F)F` [GMR080], the “An. gambiae AKDR LD50” value is reported as over 100 ng/mg. With `O=C(Nc1c(F)c(F)nc(F)c1F)C(F)(F)F` [GMR081] the “An. gambiae AKDR LD50” value was over 100 ng/mg.

— patent US20230337677A1, “ARYL AND PYRIDYL AMIDE PESTICIDES AND COMPOSITIONS THEREOF” (University of Florida Research Foundation, Incorporated, priority 2019, published 2023)
